Measured values as given in patent publication US9322066B2, “Predictors for cancer treatment” (priority 2011, dated 2016).

System: relapsed or refractory, rituximab-naive or -sensitive follicular B-cell NHL
Assay: Time to next anti-lymphoma therapy, Vc-R vs rituximab study, by biomarker
Type: in vivo, human
Set-up: Median, Time to Next Anti-Lymphoma Therapy / Time to Next Anti-Lymphoma Therapy, Median: unit not given here
Excerpt: Non-Hodgkin lymphoma (NHL) encompasses several unique malignant lymphoid disease entities that vary in clinical behavior, morphologic appearance, immunologic, and molecular phenotype. […] A randomized, open-label, active-controlled, multicenter, multinational, prospective study to compare the efficacy and safety of the combination of bortezomib and rituximab (Vc-R) to single-agent rituximab in subjects who have relapsed or refractory, rituximab-naive or -sensitive follicular B-cell NHL was performed.
Subjects were centrally randomized to Treatment Groups A (Vc-R) or B (rituximab) in a 1:1 ratio taking into account the following stratification factors: • Follicular Lymphoma International Prognostic Index (FLIPI) score (low [0 or 1 factor], intermediate [2 factors], high [≧3 factors]); • Prior rituximab therapy (yes, no); • Time since last dose of anti-lymphoma therapy (≦1 year, >1 year); • Region (United States/Canada, European Union, Rest of World).
The following clinical endpoints were included in the analysis within each treatment group and an overall comparison was made with the biomarker-related endpoints: Progression-free survival, defined as the interval between the date of randomization and the date of progressive disease (PD) or death, whichever is first reported in the ITT population; overall survival; overall response rate (complete response [CR]+CR unconfirmed [CRu]+partial response [PR]); overall CR rate (CR+CRu); duration of response; time to next anti-lymphoma therapy; and treatment free interval.

[1] = PSMB5/L206M: C/C, High Tumor Burden
[2] = PSMB5/L206M: C/C, ≦65 years old
[3] = PSMB5/R24C: C/C, >1 year since last anti-lymphoma treatment
[4] = PSMB5/R24C: C/T, Ann Arbor Stage IV
[5] = PSMB5/R24C: C/T, High Tumor Burden
[6] = PSMB6/A234D: C/C, >1 year since last anti-lymphoma treatment
[7] = PSMB6/A234D: C/C, Ann Arbor Stage IV
[8] = PSMB6/A234D: C/C, European Union
[9] = PSMB6/A234D: C/C, High Tumor Burden
[10] = PSMB6/A234D: C/C, ≦65 years old
[11] = PSMB6/P107A: C/C, >1 year since last anti-lymphoma treatment
[12] = PSMB6/P107A: C/C, Ann Arbor Stage IV
[13] = PSMB6/P107A: C/C, High Tumor Burden
[14] = PSMB6/P107A: C/C, ≦65 years old
[15] = PSMB8/G8R: G/G, >1 year since last anti-lymphoma treatment
[16] = PSMB8/G8R: G/G, Ann Arbor Stage IV
[17] = PSMB8/G8R: G/G, High Tumor Burden
[18] = PSMB8/R141C: C/C, >1 year since last anti-lymphoma treatment
[19] = PSMB8/R141C: C/C, Ann Arbor Stage IV
[20] = PSMB8/R141C: C/C, European Union
[21] = PSMB8/R141C: C/C, High Tumor Burden
[22] = PSMB8/R141C: C/C, ≦65 years old
[23] = PSMB8/V182M: G/G, >1 year since last anti-lymphoma treatment
[24] = PSMB8/V182M: G/G, Ann Arbor Stage IV
[25] = PSMB8/V182M: G/G, European Union
[26] = PSMB8/V182M: G/G, High Tumor Burden
[27] = PSMB8/V182M: G/G, ≦65 years old
[28] = PSMB9/G9E: G/G, >1 year since last anti-lymphoma treatment
[29] = PSMB9/G9E: G/G, Ann Arbor Stage IV
[30] = PSMB9/G9E: G/G, High Tumor Burden
[31] = PSMB9/V32I: C/C, 5 Prior Lines of Therapy
[32] = PSMB9/V32I: C/C, >1 year since last anti-lymphoma treatment
[33] = PSMB9/V32I: C/C, Ann Arbor Stage IV
[34] = PSMB9/V32I: C/C, High Tumor Burden

Substance: rituximab
- Time to Next Anti-Lymphoma Therapy, Median (PSMB5/L206M: C/C, European Union): 675
- Time to Next Anti-Lymphoma Therapy, Evt/N [1]: 108/147
- Time to Next Anti-Lymphoma Therapy, Median [1]: 396
- Time to Next Anti-Lymphoma Therapy, Evt/N (PSMB5/L206M: C/C, No Subgroup): 173/276
- Time to Next Anti-Lymphoma Therapy, Median (PSMB5/L206M: C/C, No Subgroup): 546
- Time to Next Anti-Lymphoma Therapy, Evt/N [2]: 130/198
- Time to Next Anti-Lymphoma Therapy, Median [2]: 489
- Time to Next Anti-Lymphoma Therapy, Evt/N [3]: 81/137
- Time to Next Anti-Lymphoma Therapy, Median [3]: 649
- Time to Next Anti-Lymphoma Therapy, Evt/N (PSMB5/R24C: C/C, No Subgroup): 147/235
- Time to Next Anti-Lymphoma Therapy, Median (PSMB5/R24C: C/C, No Subgroup): 546
- Time to Next Anti-Lymphoma Therapy, Evt/N (PSMB5/R24C: C/C, ≦65 years old): 113/170
- Time to Next Anti-Lymphoma Therapy, Median (PSMB5/R24C: C/C, ≦65 years old): 489
- Time to Next Anti-Lymphoma Therapy, Evt/N [4]: 11/15
- Time to Next Anti-Lymphoma Therapy, Median [4]: 421
- Time to Next Anti-Lymphoma Therapy, Evt/N [5]: 19/21
- Time to Next Anti-Lymphoma Therapy, Median [5]: 317
- Time to Next Anti-Lymphoma Therapy, Evt/N [6]: 98/165
- Time to Next Anti-Lymphoma Therapy, Median [6]: 688
- Time to Next Anti-Lymphoma Therapy, Evt/N [7]: 86/127
- Time to Next Anti-Lymphoma Therapy, Median [7]: 457
- Time to Next Anti-Lymphoma Therapy, Evt/N [8]: 75/119
- Time to Next Anti-Lymphoma Therapy, Median [8]: 675
- Time to Next Anti-Lymphoma Therapy, Evt/N [9]: 108/147
- Time to Next Anti-Lymphoma Therapy, Median [9]: 396
- Time to Next Anti-Lymphoma Therapy, Evt/N (PSMB6/A234D: C/C, No Subgroup): 173/276
- Time to Next Anti-Lymphoma Therapy, Median (PSMB6/A234D: C/C, No Subgroup): 546
- Time to Next Anti-Lymphoma Therapy, Evt/N [10]: 130/198
- Time to Next Anti-Lymphoma Therapy, Median [10]: 489
- Time to Next Anti-Lymphoma Therapy, Evt/N [11]: 95/159
- Time to Next Anti-Lymphoma Therapy, Median [11]: 702
- Time to Next Anti-Lymphoma Therapy, Evt/N [12]: 84/124
- Time to Next Anti-Lymphoma Therapy, Median [12]: 485
- Time to Next Anti-Lymphoma Therapy, Evt/N [13]: 104/140
- Time to Next Anti-Lymphoma Therapy, Median [13]: 380
- Time to Next Anti-Lymphoma Therapy, Evt/N (PSMB6/P107A: C/C, No Subgroup): 167/265
- Time to Next Anti-Lymphoma Therapy, Median (PSMB6/P107A: C/C, No Subgroup): 550
- Time to Next Anti-Lymphoma Therapy, Evt/N [14]: 125/189
- Time to Next Anti-Lymphoma Therapy, Median [14]: 504
- Time to Next Anti-Lymphoma Therapy, Evt/N [15]: 91/155
- Time to Next Anti-Lymphoma Therapy, Median [15]: 702
- Time to Next Anti-Lymphoma Therapy, Evt/N [16]: 80/120
- Time to Next Anti-Lymphoma Therapy, Median [16]: 457
- Time to Next Anti-Lymphoma Therapy, Evt/N (PSMB8/G8R: G/G, European Union): 70/111
- Time to Next Anti-Lymphoma Therapy, Median (PSMB8/G8R: G/G, European Union): 649
- Time to Next Anti-Lymphoma Therapy, Evt/N (PSMB8/G8R: G/G, Female): 94/160
- Time to Next Anti-Lymphoma Therapy, Median (PSMB8/G8R: G/G, Female): 649
- Time to Next Anti-Lymphoma Therapy, Evt/N [17]: 104/140
- Time to Next Anti-Lymphoma Therapy, Median [17]: 374
- Time to Next Anti-Lymphoma Therapy, Evt/N (PSMB8/G8R: G/G, No Subgroup): 165/264
- Time to Next Anti-Lymphoma Therapy, Median (PSMB8/G8R: G/G, No Subgroup): 537
- Time to Next Anti-Lymphoma Therapy, Evt/N (PSMB8/G8R: G/G, ≦65 years old): 123/189
- Time to Next Anti-Lymphoma Therapy, Median (PSMB8/G8R: G/G, ≦65 years old): 504
- Time to Next Anti-Lymphoma Therapy, Evt/N [18]: 98/165
- Time to Next Anti-Lymphoma Therapy, Median [18]: 688
- Time to Next Anti-Lymphoma Therapy, Evt/N [19]: 86/127
- Time to Next Anti-Lymphoma Therapy, Median [19]: 457
- Time to Next Anti-Lymphoma Therapy, Evt/N [20]: 75/119
- Time to Next Anti-Lymphoma Therapy, Median [20]: 675
- Time to Next Anti-Lymphoma Therapy, Evt/N [21]: 108/147
- Time to Next Anti-Lymphoma Therapy, Median [21]: 396
- Time to Next Anti-Lymphoma Therapy, Evt/N (PSMB8/R141C: C/C, No Subgroup): 173/276
- Time to Next Anti-Lymphoma Therapy, Median (PSMB8/R141C: C/C, No Subgroup): 546
- Time to Next Anti-Lymphoma Therapy, Evt/N [22]: 130/198
- Time to Next Anti-Lymphoma Therapy, Median [22]: 489
- Time to Next Anti-Lymphoma Therapy, Evt/N [23]: 98/165
- Time to Next Anti-Lymphoma Therapy, Median [23]: 688
- Time to Next Anti-Lymphoma Therapy, Evt/N [24]: 86/127
- Time to Next Anti-Lymphoma Therapy, Median [24]: 457
- Time to Next Anti-Lymphoma Therapy, Evt/N [25]: 75/119
- Time to Next Anti-Lymphoma Therapy, Median [25]: 675
- Time to Next Anti-Lymphoma Therapy, Evt/N [26]: 108/147
- Time to Next Anti-Lymphoma Therapy, Median [26]: 396
- Time to Next Anti-Lymphoma Therapy, Evt/N (PSMB8/V182M: G/G, No Subgroup): 173/276
- Time to Next Anti-Lymphoma Therapy, Median (PSMB8/V182M: G/G, No Subgroup): 546
- Time to Next Anti-Lymphoma Therapy, Evt/N [27]: 130/198
- Time to Next Anti-Lymphoma Therapy, Median [27]: 489
- Time to Next Anti-Lymphoma Therapy, Evt/N [28]: 97/163
- Time to Next Anti-Lymphoma Therapy, Median [28]: 688
- Time to Next Anti-Lymphoma Therapy, Evt/N [29]: 86/126
- Time to Next Anti-Lymphoma Therapy, Median [29]: 457
- Time to Next Anti-Lymphoma Therapy, Evt/N (PSMB9/G9E: G/G, European Union): 75/119
- Time to Next Anti-Lymphoma Therapy, Median (PSMB9/G9E: G/G, European Union): 675
- Time to Next Anti-Lymphoma Therapy, Evt/N [30]: 107/145
- Time to Next Anti-Lymphoma Therapy, Median [30]: 396
- Time to Next Anti-Lymphoma Therapy, Evt/N (PSMB9/G9E: G/G, No Subgroup): 172/274
- Time to Next Anti-Lymphoma Therapy, Median (PSMB9/G9E: G/G, No Subgroup): 546
- Time to Next Anti-Lymphoma Therapy, Evt/N (PSMB9/G9E: G/G, ≦65 years old): 129/196
- Time to Next Anti-Lymphoma Therapy, Median (PSMB9/G9E: G/G, ≦65 years old): 489
- Time to Next Anti-Lymphoma Therapy, Evt/N (PSMB9/R60H: A/G, Male): 22/28
- Time to Next Anti-Lymphoma Therapy, Median (PSMB9/R60H: A/G, Male): 380
- Time to Next Anti-Lymphoma Therapy, Evt/N [31]: 7/8
- Time to Next Anti-Lymphoma Therapy, Median [31]: 228
- Time to Next Anti-Lymphoma Therapy, Evt/N [32]: 96/160
- Time to Next Anti-Lymphoma Therapy, Median [32]: 649
- Time to Next Anti-Lymphoma Therapy, Evt/N [33]: 84/123
- Time to Next Anti-Lymphoma Therapy, Median [33]: 457
- Time to Next Anti-Lymphoma Therapy, Evt/N [34]: 106/142
- Time to Next Anti-Lymphoma Therapy, Median [34]: 396
- Time to Next Anti-Lymphoma Therapy, Evt/N (PSMB9/V32I: C/C, ≦65 years old): 127/192
- Time to Next Anti-Lymphoma Therapy, Median (PSMB9/V32I: C/C, ≦65 years old): 489
